In article PMC4669789, “Selective inhibition of HDAC8 decreases neuroblastoma growth in vitro and in vivo and enhances retinoic acid-mediated differentiation” (Cell Death & Disease, 2015):
“And” between values parts separate entries of the source, which are not always exact repeats. Equal entries are not always repeated.

Experiments:
HDAC10 = target: T1, HDAC10 (Homo sapiens, UniProt Q969S8); experiment: In vitro HDAC activity assay (Reaction Biology); assay type: biochemical; settings: cell-free; read-out: IC50 values of HDAC8 inhibitors, HDAC10
T1 sequence (Q969S8 1-323 limits assumed): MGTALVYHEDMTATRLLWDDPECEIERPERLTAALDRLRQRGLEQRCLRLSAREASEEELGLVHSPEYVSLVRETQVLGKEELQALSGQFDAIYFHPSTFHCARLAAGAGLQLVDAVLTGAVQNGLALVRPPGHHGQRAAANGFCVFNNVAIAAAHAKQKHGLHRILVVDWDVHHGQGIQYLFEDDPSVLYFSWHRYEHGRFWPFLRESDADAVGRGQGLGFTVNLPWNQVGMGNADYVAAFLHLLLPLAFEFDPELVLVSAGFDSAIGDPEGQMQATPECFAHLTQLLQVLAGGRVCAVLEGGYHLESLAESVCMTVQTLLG
Procedure: (§1) Peptide substrate was conjugated with AMC. […] The HDAC reaction was performed at 30 °C for 2 h before adding the developer reagent. The free AMC was detected with excitation of 360 nm and emission 460 nm at kinetic mode for 90 min. IC50 values were calculated with GraphPad Prism version 3.0a (GraphPad Software Inc., San Diego, CA, USA).

HDAC5 = HDAC5 (Homo sapiens, UniProt Q9UQL6); experiment: In vitro HDAC activity assay (Reaction Biology); assay type: biochemical; settings: cell-free; read-out: IC50 values of HDAC8 inhibitors, HDAC5
Chain of HDAC5 (Q9UQL6 684-1028 limits assumed): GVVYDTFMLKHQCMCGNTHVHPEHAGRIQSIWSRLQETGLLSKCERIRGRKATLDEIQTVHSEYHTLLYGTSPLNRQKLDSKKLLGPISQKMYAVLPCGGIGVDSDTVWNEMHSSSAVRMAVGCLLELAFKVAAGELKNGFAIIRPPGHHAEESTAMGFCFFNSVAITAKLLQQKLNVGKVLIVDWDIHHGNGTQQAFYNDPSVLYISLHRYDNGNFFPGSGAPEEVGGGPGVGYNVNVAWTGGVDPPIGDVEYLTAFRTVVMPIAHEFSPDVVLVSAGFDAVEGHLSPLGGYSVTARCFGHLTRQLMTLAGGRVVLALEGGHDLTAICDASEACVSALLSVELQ
Procedure: as §1

HDAC8 = target: T2, HDAC8 (Homo sapiens, UniProt Q9BY41); experiment: In vitro HDAC activity assay (Reaction Biology); assay type: biochemical; settings: cell-free; read-out: IC50 values of HDAC8 inhibitors, HDAC8
T2 sequence (Q9BY41 14-324 limits assumed): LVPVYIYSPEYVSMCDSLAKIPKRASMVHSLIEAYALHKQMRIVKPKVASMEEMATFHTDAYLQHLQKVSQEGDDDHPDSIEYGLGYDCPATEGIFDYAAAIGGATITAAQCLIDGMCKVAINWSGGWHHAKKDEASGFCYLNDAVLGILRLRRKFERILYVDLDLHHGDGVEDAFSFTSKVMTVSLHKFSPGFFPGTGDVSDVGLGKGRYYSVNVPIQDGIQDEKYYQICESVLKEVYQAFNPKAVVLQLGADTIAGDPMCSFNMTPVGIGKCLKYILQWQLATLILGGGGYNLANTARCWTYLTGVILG
Procedure: as §1

HDAC4 = HDAC4 (Homo sapiens, UniProt P56524); experiment: In vitro HDAC activity assay (Reaction Biology); assay type: biochemical; settings: cell-free; read-out: IC50 values of HDAC8 inhibitors, HDAC4
Chain of HDAC4 (P56524 655-1084 limits assumed): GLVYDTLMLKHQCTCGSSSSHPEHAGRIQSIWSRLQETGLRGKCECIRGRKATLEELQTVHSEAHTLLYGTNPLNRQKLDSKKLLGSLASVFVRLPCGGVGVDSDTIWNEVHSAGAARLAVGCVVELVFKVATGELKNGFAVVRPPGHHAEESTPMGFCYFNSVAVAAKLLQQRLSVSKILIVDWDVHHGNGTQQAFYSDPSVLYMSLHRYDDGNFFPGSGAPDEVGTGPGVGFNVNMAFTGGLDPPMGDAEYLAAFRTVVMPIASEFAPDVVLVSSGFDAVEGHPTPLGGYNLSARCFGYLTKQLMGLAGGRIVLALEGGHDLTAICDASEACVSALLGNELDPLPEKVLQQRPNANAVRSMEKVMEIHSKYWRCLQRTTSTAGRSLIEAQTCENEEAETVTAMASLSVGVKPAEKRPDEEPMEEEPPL
Procedure: as §1

HDAC2 = HDAC2 (Homo sapiens, UniProt Q92769); experiment: In vitro HDAC activity assay (Reaction Biology); assay type: biochemical; settings: cell-free; read-out: IC50 values of HDAC8 inhibitors, HDAC2
Chain of HDAC2 (Q92769 9-322 limits assumed): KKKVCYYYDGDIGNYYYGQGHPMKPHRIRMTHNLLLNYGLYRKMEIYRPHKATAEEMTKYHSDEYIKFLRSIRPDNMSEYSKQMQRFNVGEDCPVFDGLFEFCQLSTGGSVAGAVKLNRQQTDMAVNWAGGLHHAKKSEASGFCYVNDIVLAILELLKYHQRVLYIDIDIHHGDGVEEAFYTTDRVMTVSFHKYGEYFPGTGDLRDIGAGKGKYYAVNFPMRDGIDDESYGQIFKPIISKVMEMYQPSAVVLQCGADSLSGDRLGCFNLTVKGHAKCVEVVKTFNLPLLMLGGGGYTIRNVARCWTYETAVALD
Procedure: as §1

HDAC7 = target: T3, HDAC7 (Homo sapiens, UniProt Q8WUI4); experiment: In vitro HDAC activity assay (Reaction Biology); assay type: biochemical; settings: cell-free; read-out: IC50 values of HDAC8 inhibitors, HDAC7
T3 sequence (Q8WUI4 512-865 limits assumed): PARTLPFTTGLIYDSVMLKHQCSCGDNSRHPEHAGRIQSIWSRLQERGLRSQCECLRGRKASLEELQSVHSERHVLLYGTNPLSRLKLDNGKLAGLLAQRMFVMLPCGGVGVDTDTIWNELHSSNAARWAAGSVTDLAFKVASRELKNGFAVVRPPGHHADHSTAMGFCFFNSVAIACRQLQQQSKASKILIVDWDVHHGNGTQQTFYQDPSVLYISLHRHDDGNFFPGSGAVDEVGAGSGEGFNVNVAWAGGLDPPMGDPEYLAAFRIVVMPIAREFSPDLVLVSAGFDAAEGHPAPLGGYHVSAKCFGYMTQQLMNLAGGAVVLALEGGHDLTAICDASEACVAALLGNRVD
Procedure: as §1

HDAC3 = HDAC3 (Homo sapiens, UniProt O15379); experiment: In vitro HDAC activity assay (Reaction Biology); assay type: biochemical; settings: cell-free; read-out: IC50 values of HDAC8 inhibitors, HDAC3
Chain of HDAC3 (O15379 3-316 limits assumed): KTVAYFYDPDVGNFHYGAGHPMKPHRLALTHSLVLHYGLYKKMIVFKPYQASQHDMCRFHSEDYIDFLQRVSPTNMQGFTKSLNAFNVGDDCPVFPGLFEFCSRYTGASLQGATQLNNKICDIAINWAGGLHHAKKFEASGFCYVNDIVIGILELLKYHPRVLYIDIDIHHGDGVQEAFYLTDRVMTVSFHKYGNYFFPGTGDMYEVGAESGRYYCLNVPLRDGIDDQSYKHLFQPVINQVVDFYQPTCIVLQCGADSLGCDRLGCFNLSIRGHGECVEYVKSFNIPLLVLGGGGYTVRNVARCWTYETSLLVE
Chain of HDAC3 (Q9Y618 395-489 partner limits assumed): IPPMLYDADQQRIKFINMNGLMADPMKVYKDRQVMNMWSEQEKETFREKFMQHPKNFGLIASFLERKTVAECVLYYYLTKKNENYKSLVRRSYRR
Procedure: as §1

BE(2)-C cells = experiment: Western blot of histone 4, α-tubulin and SMC3 acetylation; assay type: cell-based, human
Procedure: Western blot analysis was performed as described previously.[15] For detection of phosphoproteins, PhosStop (Roche, Penzberg, Germany) was added to the lysis buffer.

[1] = Determination of MTD and dose-limiting toxicities; settings: NMRI Foxn1 nude, mouse, in vivo, ip
Procedure: (§2) Each dose was tested in a cohort of three animals. Resulting MTDs were validated within cohorts of eight animals for each inhibitor. […] As a reference, the blood of 12 untreated NMRI Foxn1 nude mice was analyzed. […] Vorinostat was used as a control for unselective HDAC inhibition.
(§3) DLTs were monitored by observation of general condition and determination of body weight. We used several criteria for objectively measuring DLT. These included a decrease in body weight of ≥20% compared with baseline body weight, blood analysis of standard parameters for clinical chemistry and hematology (central laboratory of University Hospital Heidelberg, Heidelberg, Germany) and organ histopathology (formalin-fixed, paraffin-embedded organs), by H&E stain for the detection of necrosis (Prof. Dr. AD Gruber, Institute for Veterinary Pathology, Berlin, Germany).

NMRI Foxn1 nude mice = experiment: Determination of MTD and dose-limiting toxicities
Procedure: as §2, §3

[2] = Determination of inhibitor plasma half-life; assay type: in vivo, mouse
[3] = working concentrations: 40 μM Cpd2, 4 μM PCI-34051 and PCI-48000

O=C(NO)c1cccc2ccccc12 [Cpd2, 1-naphthohydroxamic acid]
IC50 (HDAC10): > 75.6 µM
IC50 (HDAC5): > 75.6 µM
IC50 (HDAC8): 34 µM and 33.7 µM
IC50 (HDAC4): > 75.6 µM
IC50 (HDAC2): > 75.6 µM
IC50 (HDAC7): > 75.6 µM
IC50 (HDAC3): > 75.6 µM
tubulin acetylation (HDAC6 off-target activity) (BE(2)-C cells; increasing concentrations far above IC50 values (up to 200 μM Cpd2, 100 μM PCI-34051)): induced tubulin acetylation
SMC3 acetylation (HDAC8 substrate) (BE(2)-C cells; [3]): increase in acetylation level
histone 4 acetylation (HDAC1-3 substrate) (BE(2)-C cells; [3]): absence of HDAC1-3 substrate acetylation
tubulin acetylation (HDAC6 substrate) (BE(2)-C cells; [3]): absence of HDAC6 substrate acetylation
MTD [1]: 50 mg/kg/day
Dose-limiting toxicities (DLTs) (NMRI Foxn1 nude mice; intraperitoneal, increasing doses 40 up to 400 mg/kg per day): weight loss and signs of liver toxicity
body weight and blood parameters at MTD (NMRI Foxn1 nude mice; mouse, in vivo): neither body weight (Figure 2a) nor blood parameters were critically changed
half-life ([2]; NMRI Foxn1 nude, mouse, plasma, ip, 100 mg/kg, intraperitoneal 100 mg/kg, NMRI Foxn1 nude mice, read-out: half-life in blood plasma): ~15 min
plasma peak concentration ([2]; intraperitoneal, single dose of 100 mg/kg, mice): ~ 30 μM
